# Measured values published in patent publication US6737383B1, “Herbicidal oxadiazolidines” (priority 1999, dated 2004).
# Legend:
# blackgrass = assay: Test B pre/postemergence blackgrass; format: in vivo, Alopecurus myosuroides; conditions: for Blackgrass plant response rating: scale of 0 to 10 where 0 is no effect and 10 is complete control
# Method in brief: (§1)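 Test chemicals in a non-phytotoxic solvent mixture with surfactant were sprayed preemergence onto planted seeds and postemergence onto plants 2 to 18 cm tall (1- to 4-leaf stage). After twelve to sixteen days in a greenhouse, injury was visually rated against untreated controls from 0 (no effect) to 10 (complete control).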
# rape = assay: Test B pre/postemergence rape; format: in vivo, Brassica napus; conditions: for Rape plant response rating: scale of 0 to 10 where 0 is no effect and 10 is complete control
# Method in brief: as §1
# smallflower flatsedge = assay: Test B flood test smallflower flatsedge; format: in vivo, Cyperus difformis
# Method in brief: (§2)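 Plants were grown to the 2-leaf stage before treatment with test chemical, then held in a greenhouse for twelve to sixteen days. Injury was visually rated against untreated controls on a 0–10 scale, where 0 is no effect and 10 is complete control.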
# pigweed = assay: Test B pre/postemergence pigweed; format: in vivo, Amaranthus retroflexus; conditions: for Redroot pigweed plant response rating: scale of 0 to 10 where 0 is no effect and 10 is complete control
# Method in brief: as §1
# surinam grass = assay: Test B pre/postemergence surinam grass; format: in vivo, Brachiaria decumbens; conditions: for B. signalgrass plant response rating: scale of 0 to 10 where 0 is no effect and 10 is complete control
# Method in brief: as §1
# wild oat = assay: Test B pre/postemergence wild oat; format: in vivo, Avena fatua; conditions: for Wild oats plant response rating: scale of 0 to 10 where 0 is no effect and 10 is complete control
# Method in brief: as §1
# duck salad = assay: Test B flood test duck salad; format: in vivo, Heteranthera limosa
# Method in brief: as §2
# cocklebur = assay: Test B pre/postemergence cocklebur; format: in vivo, Xanthium strumarium; conditions: for Cocklebur plant response rating: scale of 0 to 10 where 0 is no effect and 10 is complete control
# Method in brief: as §1
# purple nutsedge = assay: Test B pre/postemergence purple nutsedge; format: in vivo, Cyperus rotundus; conditions: for Nutsedge plant response rating: scale of 0 to 10 where 0 is no effect and 10 is complete control
# Method in brief: as §1
# sugar beet = assay: Test B pre/postemergence sugar beet; format: in vivo, Beta vulgaris; conditions: for Sugarbeets plant response rating: scale of 0 to 10 where 0 is no effect and 10 is complete control
# Method in brief: as §1
# wheat = assay: Test B pre/postemergence wheat; format: in vivo, Triticum aestivum; conditions: for Wheat plant response rating: scale of 0 to 10 where 0 is no effect and 10 is complete control
# Method in brief: as §1
# soybean = assay: Test B pre/postemergence soybean; format: in vivo, Glycine max; conditions: for Soybean plant response rating: scale of 0 to 10 where 0 is no effect and 10 is complete control
# Method in brief: as §1
# giant foxtail = assay: Test B pre/postemergence giant foxtail; format: in vivo, Setaria faberii; conditions: for Giant foxtail plant response rating: scale of 0 to 10 where 0 is no effect and 10 is complete control
# Method in brief: as §1
# bamyardgrass = assay: Test B flood test barnyardgrass; format: in vivo, Echinochloa crus-galli
# Method in brief: as §2
# bedstraw = assay: Test B pre/postemergence bedstraw; format: in vivo, Galium aparine; conditions: Preemergence
# Method in brief: as §1
# morningglory = assay: Test B pre/postemergence morningglory; format: in vivo, Ipomoea hederacea; conditions: for Morningglory plant response rating: scale of 0 to 10 where 0 is no effect and 10 is complete control
# Method in brief: as §1
# [1] = Postemergence, Rate 125 g/ha, scale 0 to 10, 0 is no effect, 10 is complete control
# [2] = Postemergence, Rate 250 g/ha, scale 0 to 10, 0 is no effect, 10 is complete control
# [3] = Preemergence, Rate 62 g/ha, scale 0 to 10 (0 no effect, 10 complete control)
# [4] = Rate 500 g/ha, Postemergence, scale 0 to 10, 0 no effect, 10 complete control
# [5] = Rate 62 g/ha, flood test species, Pre-emergence, visual evaluation after twelve to sixteen days
# [6] = Rate 125 g/ha, under heading Pre-emergence, flood test species, visual evaluation after twelve to sixteen days
# [7] = Rate 250 g/ha, Pre-emergence, flood-test species, scale 0 to 10, 0 is no effect, 10 is complete control
# [8] = Rate 500 g/ha, Pre-emergence, flood test species, scale 0 to 10 (0 no effect, 10 complete control)
smiles,measurement,setting,value
Cc1nsc(Cl)c1Cn1c(=O)on(C(=O)N(c2ccccc2)C(C)C)c1=O [Compound 374],"Plant response rating, Blackgrass",blackgrass; [1],0
same,"Plant response rating, Blackgrass",blackgrass; [2],0
same,"Plant response rating, Blackgrass",blackgrass; [3],0
same,Blackgrass plant response rating (0 to 10 scale),"blackgrass; Preemergence, Rate 125 g/ha",2
same,Blackgrass plant response rating,"blackgrass; Preemergence, Rate 250 g/ha",5
same,Blackgrass plant response rating,"blackgrass; Preemergence, Rate 500 g/ha",6
same,Blackgrass plant response rating,"blackgrass; Rate 62 g/ha, Postemergence",0
same,"Plant response rating, Rape",rape; [1],2
same,"Plant response rating, Rape",rape; [2],2
same,"Plant response rating, Rape",rape; [3],0
same,Rape plant response rating (0 to 10 scale),"rape; Preemergence, Rate 125 g/ha",0
same,Rape plant response rating,"rape; Preemergence, Rate 250 g/ha",2
same,Rape plant response rating,"rape; Preemergence, Rate 500 g/ha",7
same,Rape plant response rating,"rape; Rate 62 g/ha, Postemergence",0
same,"Plant response rating, Rape",rape; [4],7
same,"Plant response rating, S. Flatsedge (0 to 10 scale, 0 is no effect, 10 is complete control)",smallflower flatsedge; [5],0
same,"S. Flatsedge plant response rating (0 to 10 scale, 0 is no effect, 10 is complete control)",smallflower flatsedge; [6],0
same,S. Flatsedge plant response rating,smallflower flatsedge; [7],0
same,S. Flatsedge plant response rating,smallflower flatsedge; [8],0
same,"Plant response rating, Redroot pigweed",pigweed; [1],0
same,"Plant response rating, Redroot pigweed",pigweed; [2],2
same,"Plant response rating, Redroot pigweed",pigweed; [3],0
same,Redroot pigweed plant response rating (0 to 10 scale),"pigweed; Preemergence, Rate 125 g/ha",0
same,Redroot pigweed plant response rating,"pigweed; Preemergence, Rate 250 g/ha",0
same,Redroot pigweed plant response rating,"pigweed; Rate 62 g/ha, Postemergence",0
same,"Plant response rating, Redroot pigweed",pigweed; [4],6
same,"Plant response rating, B. signalgrass",surinam grass; [1],0
same,"Plant response rating, B. signalgrass",surinam grass; [2],0
same,"Plant response rating, B. signalgrass",surinam grass; [3],0
same,"B. signalgrass plant response rating (0 to 10 scale, 0 is no effect, 10 is complete control)","surinam grass; Preemergence, Rate 125 g/ha",0
same,B. signalgrass plant response rating,"surinam grass; Preemergence, Rate 250 g/ha",2
same,B. signalgrass plant response rating,"surinam grass; Preemergence, Rate 500 g/ha",5
same,B. signalgrass plant response rating,"surinam grass; Rate 62 g/ha, Postemergence",0
same,"Plant response rating, B. signalgrass",surinam grass; [4],0
same,"Plant response rating, Wild oats",wild oat; [1],0
same,"Plant response rating, Wild oats",wild oat; [2],0
same,"Plant response rating, Wild oats",wild oat; [3],0
same,Wild oats plant response rating (0 to 10 scale),"wild oat; Preemergence, Rate 125 g/ha",0
same,Wild oats plant response rating,"wild oat; Preemergence, Rate 250 g/ha",0
same,Wild oats plant response rating,"wild oat; Preemergence, Rate 500 g/ha",0
same,Wild oats plant response rating,"wild oat; Rate 62 g/ha, Postemergence",0
same,"Plant response rating, Ducksalad (0 to 10 scale, 0 is no effect, 10 is complete control)",duck salad; [5],0
same,"Ducksalad plant response rating (0 to 10 scale, 0 is no effect, 10 is complete control)",duck salad; [6],0
same,Ducksalad plant response rating,duck salad; [7],0
same,Ducksalad plant response rating,duck salad; [8],0
same,"Plant response rating, Cocklebur",cocklebur; [1],0
same,"Plant response rating, Cocklebur",cocklebur; [2],0
same,"Plant response rating, Cocklebur",cocklebur; [3],0
same,Cocklebur plant response rating (0 to 10 scale),"cocklebur; Preemergence, Rate 125 g/ha",0
same,Cocklebur plant response rating,"cocklebur; Preemergence, Rate 250 g/ha",0
same,Cocklebur plant response rating,"cocklebur; Preemergence, Rate 500 g/ha",0
same,Cocklebur plant response rating,"cocklebur; Rate 62 g/ha, Postemergence",0
same,"Plant response rating, Cocklebur",cocklebur; [4],0
same,"Plant response rating, Nutsedge",purple nutsedge; [1],0
same,"Plant response rating, Nutsedge",purple nutsedge; [2],0
same,"Plant response rating, Nutsedge",purple nutsedge; [3],0
same,Nutsedge plant response rating (0 to 10 scale),"purple nutsedge; Preemergence, Rate 125 g/ha",0
same,Nutsedge plant response rating,"purple nutsedge; Preemergence, Rate 250 g/ha",0
same,Nutsedge plant response rating,"purple nutsedge; Preemergence, Rate 500 g/ha",0
same,Nutsedge plant response rating,"purple nutsedge; Rate 62 g/ha, Postemergence",0
same,"Plant response rating, Nutsedge",purple nutsedge; [4],0
same,"Plant response rating, Sugarbeets",sugar beet; [1],0
same,"Plant response rating, Sugarbeets",sugar beet; [2],0
same,"Plant response rating, Sugarbeets",sugar beet; [3],0
same,Sugarbeets plant response rating (0 to 10 scale),"sugar beet; Preemergence, Rate 125 g/ha",0
same,Sugarbeets plant response rating,"sugar beet; Preemergence, Rate 250 g/ha",0
same,Sugarbeets plant response rating,"sugar beet; Preemergence, Rate 500 g/ha",4
same,Sugarbeets plant response rating,"sugar beet; Rate 62 g/ha, Postemergence",0
same,"Plant response rating, Sugarbeets",sugar beet; [4],4
same,"Plant response rating, Wheat",wheat; [1],0
same,"Plant response rating, Wheat",wheat; [2],0
same,"Plant response rating, Wheat",wheat; [3],0
same,Wheat plant response rating (0 to 10 scale),"wheat; Preemergence, Rate 125 g/ha",0
same,Wheat plant response rating,"wheat; Preemergence, Rate 250 g/ha",0
same,Wheat plant response rating,"wheat; Preemergence, Rate 500 g/ha",0
same,Wheat plant response rating,"wheat; Rate 62 g/ha, Postemergence",0
same,"Plant response rating, Wheat",wheat; [4],0
same,"Plant response rating, Soybean",soybean; [1],2
same,"Plant response rating, Soybean",soybean; [2],2
same,"Plant response rating, Soybean",soybean; [3],0
same,Soybean plant response rating (0 to 10 scale),"soybean; Preemergence, Rate 125 g/ha",0
same,Soybean plant response rating,"soybean; Preemergence, Rate 250 g/ha",0
same,Soybean plant response rating,"soybean; Preemergence, Rate 500 g/ha",0
same,Soybean plant response rating,"soybean; Rate 62 g/ha, Postemergence",2
same,"Plant response rating, Soybean",soybean; [4],4
same,"Plant response rating, Giant foxtail",giant foxtail; [1],0
same,"Plant response rating, Giant foxtail",giant foxtail; [2],2
same,"Plant response rating, Giant foxtail",giant foxtail; [3],8
same,Giant foxtail plant response rating (0 to 10 scale),"giant foxtail; Preemergence, Rate 125 g/ha",9
same,Giant foxtail plant response rating,"giant foxtail; Preemergence, Rate 250 g/ha",10
same,Giant foxtail plant response rating,"giant foxtail; Preemergence, Rate 500 g/ha",10
same,Giant foxtail plant response rating,"giant foxtail; Rate 62 g/ha, Postemergence",0
same,"Plant response rating, Giant foxtail",giant foxtail; [4],8
same,"Plant response rating, Barnyardgrass (0 to 10 scale, 0 is no effect, 10 is complete control)",bamyardgrass; [5],0
same,"Barnyardgrass plant response rating (0 to 10 scale, 0 is no effect, 10 is complete control)",bamyardgrass; [6],0
same,Barnyardgrass plant response rating,bamyardgrass; [7],0
same,Barnyardgrass plant response rating,bamyardgrass; [8],0
same,"Plant response rating, Bedstraw","bedstraw; Rate 62 g/ha, scale 0 to 10 (0 no effect, 10 complete control)",0
same,Bedstraw plant response rating (0 to 10 scale),bedstraw; Rate 125 g/ha,0
same,Bedstraw plant response rating,"bedstraw; Rate 250 g/ha, scale of 0 to 10 where 0 is no effect and 10 is complete control",0
same,"Plant response rating, Morningglory",morningglory; [1],5
same,"Plant response rating, Morningglory",morningglory; [2],10
same,"Plant response rating, Morningglory",morningglory; [3],0
same,Morningglory plant response rating (0 to 10 scale),"morningglory; Preemergence, Rate 125 g/ha",0
same,Morningglory plant response rating,"morningglory; Preemergence, Rate 250 g/ha",0
same,Morningglory plant response rating,"morningglory; Preemergence, Rate 500 g/ha",0
same,"Plant response rating, Morningglory",morningglory; [4],10
